Laboratory results from PubChem BioAssay AID248 (DTP/NCI, 2004).
“And” between values parts separate entries of the source, which are not always exact repeats. Equal values may be shown once. Inconclusive results and toxic doses are left out.

Test system: L1210 leukemia ip in BDF1 mice, survival T/C
Test: NCI In Vivo Anticancer Drug Screen. Data for tumor model L1210 Leukemia (intraperitoneal) in B6D2F1 (BDF1) mice
Conditions: endpoint: mean survival time, higher = longer survival
Procedure, shortened: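 Transplantable tumor model; survival measured in treated vs vehicle control mice. Value = treated/control.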

[1] = dose: 100.0 mg/kg/injection, schedule: Q01DX001 (ip), vehicle: carboxymethylcellulose (CMC)
[2] = dose: 200.0 mg/kg/injection, schedule: Q01DX001 (ip), vehicle: carboxymethylcellulose (CMC)
[3] = dose: 400.0 mg/kg/injection, schedule: Q01DX001 (ip), vehicle: carboxymethylcellulose (CMC)
[4] = dose: 100.0 mg/kg/injection, schedule: Q01DX009 (ip), vehicle: Klucel (hydroxypropylcellulose) (HPC)
[5] = dose: 200.0 mg/kg/injection, schedule: Q01DX009 (ip), vehicle: Klucel (hydroxypropylcellulose) (HPC)
[6] = dose: 100.0 mg/kg/injection, schedule: Q04DX003 (ip), vehicle: Klucel (hydroxypropylcellulose) (HPC)
[7] = dose: 200.0 mg/kg/injection, schedule: Q04DX003 (ip), vehicle: Klucel (hydroxypropylcellulose) (HPC)
[8] = dose: 400.0 mg/kg/injection, schedule: Q04DX003 (ip), vehicle: Klucel (hydroxypropylcellulose) (HPC)
[9] = dose: 100.0 mg/kg/injection, schedule: Q01DX001 (ip), vehicle: saline
[10] = dose: 200.0 mg/kg/injection, schedule: Q01DX001 (ip), vehicle: saline
[11] = dose: 100.0 mg/kg/injection, schedule: Q04DX002 (ip), vehicle: Klucel (hydroxypropylcellulose) (HPC)
[12] = dose: 200.0 mg/kg/injection, schedule: Q04DX002 (ip), vehicle: Klucel (hydroxypropylcellulose) (HPC)
[13] = dose: 400.0 mg/kg/injection, schedule: Q04DX002 (ip), vehicle: Klucel (hydroxypropylcellulose) (HPC)

O=C1OC(OC(=O)c2ccccc2)C(NC2CCCCC2)=C1Br (configuration not stated)
T/C (dose: 100.0 mg/kg/injection, schedule: Q01DX009 (ip), vehicle: saline with Tween-80): 98 % of control | T/C (dose: 200.0 mg/kg/injection, schedule: Q01DX009 (ip), vehicle: saline with Tween-80): 96 % of control | T/C (dose: 400.0 mg/kg/injection, schedule: Q01DX009 (ip), vehicle: saline with Tween-80): 98 % of control

Cc1cccc(OCc2ccccc2)n1
T/C (dose: 50.0 mg/kg/injection, schedule: Q01DX001 (ip), vehicle: carboxymethylcellulose (CMC)): 103 % of control | T/C [1]: 105 % of control | T/C [2]: 100 % of control | T/C [3]: 100 % of control

CC/C(C)=N\NC(=O)CC(=O)N/N=C(/C)CC
T/C [4]: 95 % of control | T/C [5]: 101 % of control | T/C (dose: 400.0 mg/kg/injection, schedule: Q01DX009 (ip), vehicle: Klucel (hydroxypropylcellulose) (HPC)): 100 % of control

C1=Nc2ccccc2/C1=C/c1cccs1
T/C [1]: 97 % of control | T/C (dose: 100.0 mg/kg/injection, schedule: Q01DX009 (ip), vehicle: carboxymethylcellulose (CMC)): 96 % of control and 108 % of control | T/C (dose: 100.0 mg/kg/injection, schedule: Q04DX002 (ip), vehicle: carboxymethylcellulose (CMC)): 100 % of control and 102 % of control | T/C (dose: 100.0 mg/kg/injection, schedule: Q04DX003 (ip), vehicle: carboxymethylcellulose (CMC)): 95 % of control | T/C [2]: 98 % of control | T/C (dose: 200.0 mg/kg/injection, schedule: Q01DX009 (ip), vehicle: carboxymethylcellulose (CMC)): 96 % of control and 105 % of control | T/C (dose: 200.0 mg/kg/injection, schedule: Q04DX002 (ip), vehicle: carboxymethylcellulose (CMC)): 104 % of control and 110 % of control | T/C (dose: 200.0 mg/kg/injection, schedule: Q04DX003 (ip), vehicle: carboxymethylcellulose (CMC)): 89 % of control | T/C [3]: 93 % of control | T/C (dose: 400.0 mg/kg/injection, schedule: Q01DX009 (ip), vehicle: carboxymethylcellulose (CMC)): 89 % of control and 91 % of control | T/C (dose: 400.0 mg/kg/injection, schedule: Q04DX002 (ip), vehicle: carboxymethylcellulose (CMC)): 103 % of control and 104 % of control

C/C(=N\N=C(/C)c1cccc(Br)c1)c1cccc(Br)c1
T/C [6]: 92 % of control | T/C [7]: 90 % of control | T/C [8]: 95 % of control

CN1CN(C)CN(C)C1
T/C (dose: 25.0 mg/kg/injection, schedule: Q01DX009 (ip), vehicle: saline): 105 % of control | T/C (dose: 50.0 mg/kg/injection, schedule: Q01DX009 (ip), vehicle: saline): 108 % of control | T/C (dose: 50.0 mg/kg/injection, schedule: Q04DX003 (ip), vehicle: saline): 102 % of control | T/C [9]: 101 % of control | T/C (dose: 100.0 mg/kg/injection, schedule: Q01DX009 (ip), vehicle: saline): 110 % of control | T/C (dose: 100.0 mg/kg/injection, schedule: Q04DX003 (ip), vehicle: saline): 102 % of control and 107 % of control | T/C [10]: 92 % of control | T/C (dose: 400.0 mg/kg/injection, schedule: Q01DX001 (ip), vehicle: saline): 97 % of control

Cc1ccc(CNc2ccc(Cl)cc2)cc1
T/C [4]: 95 % of control | T/C [6]: 96 % of control | T/C [5]: 104 % of control | T/C [7]: 98 % of control | T/C [8]: 96 % of control

N#Cc1c(N)[n+]([O-])c2c([n+]1[O-])CCCC2
T/C [11]: 101 % of control | T/C [12]: 104 % of control | T/C [13]: 87 % of control

CN(C)c1ccc(/C(=N\O)c2cc[n+](C)cc2)cc1
T/C (dose: 1.56 mg/kg/injection, schedule: Q01DX009 (ip), vehicle: saline): 98 % of control | T/C (dose: 3.13 mg/kg/injection, schedule: Q01DX009 (ip), vehicle: saline): 111 % of control | T/C (dose: 6.25 mg/kg/injection, schedule: Q01DX009 (ip), vehicle: saline): 104 % of control

Cc1c(C)c(C)c(C(=O)C[n+]2ccccc2)c(C)c1C
T/C (dose: 12.5 mg/kg/injection, schedule: Q04DX002 (ip), vehicle: saline): 104 % of control | T/C (dose: 25.0 mg/kg/injection, schedule: Q04DX002 (ip), vehicle: saline): 96 % of control | T/C (dose: 50.0 mg/kg/injection, schedule: Q04DX002 (ip), vehicle: saline): 107 % of control

O=C1CC(=O)NC(=O)N1
T/C (dose: 100.0 mg/kg/injection, schedule: Q04DX003 (ip), vehicle: saline with Tween-80): 91 % of control | T/C (dose: 200.0 mg/kg/injection, schedule: Q04DX003 (ip), vehicle: saline with Tween-80): 93 % of control | T/C (dose: 400.0 mg/kg/injection, schedule: Q04DX003 (ip), vehicle: saline with Tween-80): 91 % of control

CN(C)C(=O)c1cc(NC(=O)c2ccc(C(=O)Nc3cc(C(=O)N(C)C)cc(C4=NCCN4)c3)cc2)cc(C2=NCCN2)c1
T/C (dose: 7.5 mg/kg/injection, schedule: Q01DX015 (ip), vehicle: methylcellulose (MC)): 98 % of control | T/C (dose: 15.0 mg/kg/injection, schedule: Q01DX015 (ip), vehicle: methylcellulose (MC)): 98 % of control and 108 % of control | T/C (dose: 60.0 mg/kg/injection, schedule: Q01DX015 (ip), vehicle: methylcellulose (MC)): 98 % of control

O=C(O)c1ccccc1C(=O)Nc1cc(Cl)ccc1Cl
T/C (dose: 50.0 mg/kg/injection, schedule: Q01DX009 (ip), vehicle: Klucel (hydroxypropylcellulose) (HPC)): 94 % of control | T/C [4]: 98 % of control | T/C [6]: 98 % of control | T/C [5]: 93 % of control | T/C [7]: 89 % of control

CCOC(=O)/C(C#N)=C/c1ccc2n1Cc1cc(OC)c(OC)cc1N(C(C)=O)C2
T/C (dose: 25.0 mg/kg/injection, schedule: Q04DX002 (ip), vehicle: Klucel (hydroxypropylcellulose) (HPC)): 95 % of control | T/C (dose: 50.0 mg/kg/injection, schedule: Q04DX002 (ip), vehicle: Klucel (hydroxypropylcellulose) (HPC)): 93 % of control | T/C [11]: 87 % of control

CCOC(=O)CC(C)(C)CC(=O)C1CNC2=C(C1)C(=O)CC(C)(C)C2 (configuration not stated)
T/C (dose: 100.0 mg/kg/injection, schedule: Q01DX005 (ip), vehicle: Klucel (hydroxypropylcellulose) (HPC)): 102 % of control | T/C [11]: 89 % of control | T/C (dose: 200.0 mg/kg/injection, schedule: Q01DX005 (ip), vehicle: Klucel (hydroxypropylcellulose) (HPC)): 118 % of control | T/C [12]: 92 % of control | T/C (dose: 400.0 mg/kg/injection, schedule: Q01DX005 (ip), vehicle: Klucel (hydroxypropylcellulose) (HPC)): 91 % of control | T/C [13]: 97 % of control

O=C1c2ccccc2C(=O)C1(Br)Br
T/C (dose: 50.0 mg/kg/injection, schedule: Q01DX001 (ip), vehicle: saline): 106 % of control | T/C [9]: 97 % of control | T/C [10]: 101 % of control

CCCN=C(C)c1ccccc1O
T/C (dose: 100.0 mg/kg/injection, schedule: Q04DX003 (ip), vehicle: acetone): 97 % of control | T/C (dose: 200.0 mg/kg/injection, schedule: Q04DX003 (ip), vehicle: acetone): 95 % of control

c1ccc2c(C3CO3)c3ccc4ccccc4c3cc2c1 (configuration not stated)
T/C (dose: 100.0 mg/kg/injection, schedule: Q04DX002 (ip), vehicle: other): 113 % of control | T/C (dose: 200.0 mg/kg/injection, schedule: Q04DX002 (ip), vehicle: other): 179 % of control | T/C (dose: 400.0 mg/kg/injection, schedule: Q04DX002 (ip), vehicle: other): 120 % of control

O=S1(=O)C=C(c2ccccc2)C(c2ccccc2)=C1
T/C (dose: 3.12 mg/kg/injection, schedule: Q01DX009 (ip), vehicle: saline with Tween-80): 98 % of control | T/C (dose: 6.25 mg/kg/injection, schedule: Q01DX009 (ip), vehicle: saline with Tween-80): 106 % of control | T/C (dose: 12.5 mg/kg/injection, schedule: Q01DX009 (ip), vehicle: saline with Tween-80): 101 % of control | T/C (dose: 25.0 mg/kg/injection, schedule: Q01DX009 (ip), vehicle: saline with Tween-80): 101 % of control and 108 % of control | T/C (dose: 25.0 mg/kg/injection, schedule: Q04DX003 (ip), vehicle: Klucel (hydroxypropylcellulose) (HPC)): 95 % of control | T/C (dose: 50.0 mg/kg/injection, schedule: Q01DX009 (ip), vehicle: saline with Tween-80): 95 % of control | T/C (dose: 50.0 mg/kg/injection, schedule: Q04DX003 (ip), vehicle: Klucel (hydroxypropylcellulose) (HPC)): 102 % of control | T/C [6]: 118 % of control and 91 % of control
